Assay results published in US20060134693A1, “Olfactory cyclic nucleotide-gated channel cell-based assays to identify T1R and T2R taste modulators” (priority 2001, published 2006).

What was measured:
[1] = test system: untransfected HEK 293-oCNGC cells; assay: Isoproterenol-induced calcium influx in untransfected HEK 293-oCNGC cells; assay type: cell-based, human; details: for effect on isoproterenol-induced calcium influx: cells not expressing hT1R2/hT1R3, increasing concentrations, 200 nM isoproterenol, FIG. 14
Description: Delta F/F valves were normalized to the fluorescence obtained after stimulation with 200 nM isoproterenol. Each value corresponds to the mean ± SD of a triplicate determination.
(§1) Modulation of oCNG activity by taste receptors is measured in a cell-based assay that detects changes in intracellular calcium (as described in earlier examples). In brief, human embryonic kidney cells stably expressing the OCNC1 and are β1b subunits of oCNGC are transiently or stably transfected with T1R or T2R receptor plasmids. Transfected cells are seeded into 384-well culture plates, and functional expression is allowed to proceed for about 24 to 48 hours. The cells are then incubated with a calcium specific fluorescent dye (Fluo-4 or Fura-2, available from Molecular Probes) that provides for fast, simple and reliable fluorimetric detection of changes in calcium concentration within the cell.
An experiment was conducted to confirm that the effects of the sweeteners on calcium influx requires the expression of the sweet receptor.
In FIG. 14, it is shown that increasing concentrations of the tested sweeteners had no inhibitory effect on isoproterenol-induced calcium influx in untransfected HEK 293—oCNGC cells. Again, Delta F/F values were normalized to the fluorescence obtained after stimulation with 200 nM isoproternol and each value component to the mean ± SD of a triplicate determination).

[2] = biological target: T1, human sweet receptor hT1R2/hT1R3 (Homo sapiens, UniProt Q7RTX0+Q8TE23); assay: Isoproterenol-induced calcium influx in HEK-293-oCNGC cells expressing hT1R2/hT1R3; assay type: cell-based; details: PTX 100 ng/ml for 4 hours; 200 nM isoproterenol; 5 mM Aspartame, 2 mM Cyclamate, 4 mM Saccharin, 0.1 mM Neotame; FIG. 15
T1 construct: host or cells: human embryonic kidney cells (earlier application U.S. Ser. No. 10/770,127)
T1 sequence (Q8TE23 20-839): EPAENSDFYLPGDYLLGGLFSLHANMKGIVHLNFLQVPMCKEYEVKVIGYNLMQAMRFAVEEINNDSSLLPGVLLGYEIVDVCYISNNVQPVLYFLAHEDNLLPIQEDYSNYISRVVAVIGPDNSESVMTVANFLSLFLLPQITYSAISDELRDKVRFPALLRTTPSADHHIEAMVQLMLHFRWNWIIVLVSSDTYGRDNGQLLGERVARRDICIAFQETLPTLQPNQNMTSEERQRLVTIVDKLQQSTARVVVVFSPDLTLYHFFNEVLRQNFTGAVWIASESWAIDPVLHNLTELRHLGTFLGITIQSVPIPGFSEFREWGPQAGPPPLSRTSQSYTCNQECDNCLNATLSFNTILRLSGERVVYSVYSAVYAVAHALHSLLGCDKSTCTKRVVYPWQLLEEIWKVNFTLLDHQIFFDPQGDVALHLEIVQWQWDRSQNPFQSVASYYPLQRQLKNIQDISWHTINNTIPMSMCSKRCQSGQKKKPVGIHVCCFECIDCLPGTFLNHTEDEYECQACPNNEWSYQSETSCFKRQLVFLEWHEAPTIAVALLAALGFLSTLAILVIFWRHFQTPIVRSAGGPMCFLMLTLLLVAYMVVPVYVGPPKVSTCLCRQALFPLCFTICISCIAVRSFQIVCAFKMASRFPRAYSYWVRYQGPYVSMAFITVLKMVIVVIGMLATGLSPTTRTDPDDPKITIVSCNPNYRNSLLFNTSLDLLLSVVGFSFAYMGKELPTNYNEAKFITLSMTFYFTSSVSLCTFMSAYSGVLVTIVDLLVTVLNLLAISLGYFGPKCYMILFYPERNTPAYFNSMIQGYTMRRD
T1 sequence (Q7RTX0 21-852): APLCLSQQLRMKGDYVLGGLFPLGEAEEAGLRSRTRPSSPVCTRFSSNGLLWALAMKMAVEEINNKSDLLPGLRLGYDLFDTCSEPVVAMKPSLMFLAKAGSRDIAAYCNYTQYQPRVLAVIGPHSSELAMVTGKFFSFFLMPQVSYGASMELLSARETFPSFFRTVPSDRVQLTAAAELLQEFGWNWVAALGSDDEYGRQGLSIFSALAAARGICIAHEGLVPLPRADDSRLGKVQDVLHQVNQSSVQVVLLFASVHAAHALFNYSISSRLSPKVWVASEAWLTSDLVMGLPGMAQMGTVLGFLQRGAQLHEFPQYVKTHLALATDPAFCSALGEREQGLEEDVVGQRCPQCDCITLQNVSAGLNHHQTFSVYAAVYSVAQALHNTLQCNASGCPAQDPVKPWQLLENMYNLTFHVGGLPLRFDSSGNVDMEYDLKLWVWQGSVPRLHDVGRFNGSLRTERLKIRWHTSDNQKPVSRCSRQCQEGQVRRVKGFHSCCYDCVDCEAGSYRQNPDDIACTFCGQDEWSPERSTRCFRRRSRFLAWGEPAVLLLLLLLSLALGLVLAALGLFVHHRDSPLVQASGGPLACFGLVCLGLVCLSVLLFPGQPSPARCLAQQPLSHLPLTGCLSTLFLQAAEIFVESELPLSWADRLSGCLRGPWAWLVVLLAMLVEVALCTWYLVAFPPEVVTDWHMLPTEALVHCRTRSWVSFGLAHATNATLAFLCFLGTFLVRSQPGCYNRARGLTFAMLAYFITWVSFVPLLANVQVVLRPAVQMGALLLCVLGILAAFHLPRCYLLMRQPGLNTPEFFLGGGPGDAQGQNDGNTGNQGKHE
Description: FIG. 13 contains the result of an experiment showing that increasing concentrations of sweeteners inhibit the isoproterenol-induced-calcium influx in HEK 293-oCNGC cells expressing the human sweet receptor hT1R2/hT1R3. Delta F/F values were normalized to the fluorescence obtained after stimulation with 200 nM isoproterenol. Each value corresponds to the mean ± SD of a triplicate determination.
Cells were left untreated (control) or treated with PTX for 4 hours at 100 ng/ml prior to the experiment. Cells were then stimulated with 200 nM isoproterenol in the presence or absence of the indicated sweeteners (5 mM Aspartame, 2 mM Cyclamate, 4 mM Saccharin and 0.1 mM Neotame).
as §1
An experiment was conducted to assess the effect of various sweeteners (known to activate the human T1R2/T1R3 sweet receptor) on isoproterenol-induced calcium influx in HEK-293—oCNGC cells that express the human T1R2/T1R3 sweet receptor. As shown by the results in FIG. 13, increasing concentrations of sweetener inhibits isoproterenol-induced calcium influx in these cells. (In the figure, Delta F/F values were normalized to the fluorescence obtained after stimulation with 200 nM isoproterenol and each value corresponds to the means ± SD of a triplicate determination). […]

[3] = biological target: T1, human sweet receptor hT1R2/hT1R3; details: prevented by pertussis toxin; cited from earlier work
mT2R05 = biological target: T2, mT2R05 (Mus musculus, UniProt Q9JKT4); details: mT2R05-expressing cells; cited from earlier work
T2 construct: host or cells: human embryonic kidney cells (earlier application)
T2 sequence (Q9JKT4 1-300): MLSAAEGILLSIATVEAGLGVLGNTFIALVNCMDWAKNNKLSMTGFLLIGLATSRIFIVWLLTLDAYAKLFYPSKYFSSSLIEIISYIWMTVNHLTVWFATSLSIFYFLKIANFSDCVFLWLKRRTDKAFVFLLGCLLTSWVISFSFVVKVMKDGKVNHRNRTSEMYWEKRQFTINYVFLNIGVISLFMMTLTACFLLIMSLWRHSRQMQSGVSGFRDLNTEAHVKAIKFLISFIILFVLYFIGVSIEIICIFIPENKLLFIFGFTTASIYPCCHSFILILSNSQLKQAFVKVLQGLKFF

bitter receptor mT2R05 = biological target: T3, bitter receptor mT2R05 (Mus musculus, UniProt Q9JKT4); assay: Isoproterenol-induced calcium influx in HEK-293-oCNGC cells expressing mT2R05; assay type: cell-based; details: 200 nM isoproterenol, FIG. 16
T3 construct: expressed in transfected cells; host or cells: HEK-293 stably expressing OCNC1 and β1b (HEK-293-oCNGC)
T3 sequence (Q9JKT4 1-300): T2 sequence (Q9JKT4 1-300)
Description: Delta F/F values were normalized to the fluorescence obtained after stimulation with 200 nM isoproterenol. Each value corresponds to the mean +1-SD of a triplicate determination. Cells were also treated with PTX as described for the for the preceding figure.
as §1, with “cell. […]” for “cell.”
More specifically, it was shown that PTx prevented inhibition of calcium inluux even with increasing concentrations of cycloheximide in HEK-293—oCNGC cells expressing mT2R05. As in figures above, Delta F/F values were normalized to the fluorescence obtained after stimulation with 200 nM isoproterenol. […]

[4] = biological target: T4, mouse bitter receptor mT2R05 (Mus musculus, UniProt Q9JKT4); details: abolished by pertussis toxin; cited from earlier work
T4 construct: host or cells: human embryonic kidney cells (earlier application)
T4 sequence (Q9JKT4 1-300): T2 sequence (Q9JKT4 1-300)

[5] = test system: rat bitter receptors rT2R9; details: abolished by pertussis toxin; cited from earlier work
hT1R1/hT1R3 = biological target: T5, hT1R1/hT1R3 (Homo sapiens, UniProt Q7RTX0+Q7RTX1); details: hT1R1/hT1R3-expressing cells; cited from earlier work
T5 construct: host or cells: human embryonic kidney cells (earlier application U.S. Ser. No. 10/770,127)
T5 sequence (Q7RTX1 21-841): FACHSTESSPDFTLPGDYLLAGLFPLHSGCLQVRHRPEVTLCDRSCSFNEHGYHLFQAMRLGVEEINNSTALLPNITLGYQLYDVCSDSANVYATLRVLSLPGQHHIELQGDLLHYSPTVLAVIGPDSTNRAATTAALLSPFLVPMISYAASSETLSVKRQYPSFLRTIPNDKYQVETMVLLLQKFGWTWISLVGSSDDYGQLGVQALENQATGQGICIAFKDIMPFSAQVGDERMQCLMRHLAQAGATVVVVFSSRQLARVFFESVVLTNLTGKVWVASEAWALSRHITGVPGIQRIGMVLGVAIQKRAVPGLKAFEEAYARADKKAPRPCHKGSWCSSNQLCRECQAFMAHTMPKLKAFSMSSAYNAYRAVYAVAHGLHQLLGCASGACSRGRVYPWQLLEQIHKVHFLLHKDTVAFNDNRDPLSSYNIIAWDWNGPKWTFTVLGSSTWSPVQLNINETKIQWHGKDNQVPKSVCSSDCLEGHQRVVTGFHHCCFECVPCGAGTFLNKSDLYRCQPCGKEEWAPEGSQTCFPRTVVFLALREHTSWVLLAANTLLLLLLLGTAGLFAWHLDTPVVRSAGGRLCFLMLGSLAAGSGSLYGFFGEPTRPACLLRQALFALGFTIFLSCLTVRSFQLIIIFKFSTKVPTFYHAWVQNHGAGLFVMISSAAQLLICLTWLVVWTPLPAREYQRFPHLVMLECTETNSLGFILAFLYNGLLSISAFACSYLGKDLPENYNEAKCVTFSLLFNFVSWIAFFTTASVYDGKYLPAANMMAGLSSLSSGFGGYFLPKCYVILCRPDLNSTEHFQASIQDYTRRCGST
T5 sequence (Q7RTX0 21-852): T1 sequence (Q7RTX0 21-852)

[6] = biological target: T6, human umami receptor hT1R1/hT1R3 (Homo sapiens, UniProt Q7RTX0+Q7RTX1); details: prevented by pertussis toxin; cited from earlier work
T6 sequence (Q7RTX1 21-841): T5 sequence (Q7RTX1 21-841)
T6 sequence (Q7RTX0 21-852): T1 sequence (Q7RTX0 21-852)

O=C1NS(=O)(=O)c2ccccc21 [saccharin]
effect on isoproterenol-induced calcium influx [1]: unaffected
inhibition of isoproterenol-induced calcium influx after PTx pretreatment [2]: prevented the inhibition
ERK1/2 activation [3]: activate ERK1/2

C[C@@H]1C[C@@H]([C@H](O)CC2CC(=O)NC(=O)C2)C(=O)[C@@H](C)C1 [cycloheximide]
response of mT2R05 untransfected cells ([1]; untransfected HEK 293-oCNGC cells, FIG. 16): did not respond
inhibition of forskolin-induced cAMP accumulation (mT2R05): 70%
effect on isoproterenol-induced calcium influx after PTx treatment (bitter receptor mT2R05; cells treated with PTx): failed to inhibit isoproterenol-induced calcium influx
effect on isoproterenol-induced calcium influx (bitter receptor mT2R05; increasing concentrations): inhibited isoproterenol-induced calcium influx
ERK1/2 activation [4]: specifically activates ERK1/2
ERK1/2 activation [5]: specifically activates ERK1/2

N[C@H](Cc1c[nH]c2ccccc12)C(=O)O [D-tryptophan]
ERK1/2 activation [3]: activate ERK1/2

COC(=O)[C@H](Cc1ccccc1)NC(=O)[C@H](CC(=O)O)NCCC(C)(C)C [neotame]
effect on isoproterenol-induced calcium influx [1]: unaffected
inhibition of isoproterenol-induced calcium influx after PTx pretreatment [2]: prevented the inhibition

N[C@@H](CCC(=O)O)C(=O)[O-].[Na+] [monosodium glutamate]
decrease of basal levels of cAMP (hT1R1/hT1R3): 50%
ERK1/2 activation [6]: exclusively activates ERK1/2

OC[C@H]1O[C@@](CO)(O[C@H]2O[C@H](CO)[C@@H](O)[C@H](O)[C@H]2O)[C@@H](O)[C@@H]1O [sucrose]
ERK1/2 activation [3]: activate ERK1/2
